Data reported in PubChem BioAssay (NCI).
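Method: 48-hour compound exposure of cells in 96-well plates, five concentrations, linear interpolation of endpoints. GI50 marks 50% less growth. TGI marks complete inhibition of growth.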

Columns and labels:
Assay in all cases: inhibition of tumour cell growth, NCI panel, 48 h
DU-145 prostate = tested on: DU-145 prostate
IGROV1 ovarian = tested on: IGROV1 ovarian
MCF7 breast = tested on: MCF7 breast
KM12 colon = tested on: KM12 colon
786-0 renal = tested on: 786-0 renal
K-562 leukemia = tested on: K-562 leukemia
M14 melanoma = tested on: M14 melanoma
SF-539 CNS = tested on: SF-539 CNS
UO-31 renal = tested on: UO-31 renal
NCI/ADR-RES ovarian = tested on: NCI/ADR-RES ovarian
OVCAR-8 ovarian = tested on: OVCAR-8 ovarian
OVCAR-3 ovarian = tested on: OVCAR-3 ovarian
CCRF-CEM leukemia = tested on: CCRF-CEM leukemia
HCC-2998 colon = tested on: HCC-2998 colon
OVCAR-4 ovarian = tested on: OVCAR-4 ovarian
SR leukemia = tested on: SR leukemia
SK-MEL-5 melanoma = tested on: SK-MEL-5 melanoma
HCT-15 colon = tested on: HCT-15 colon
MOLT-4 leukemia = tested on: MOLT-4 leukemia
SW-620 colon = tested on: SW-620 colon
SF-295 CNS = tested on: SF-295 CNS
UACC-257 melanoma = tested on: UACC-257 melanoma
HL-60(TB) leukemia = tested on: HL-60(TB) leukemia
COLO 205 colon = tested on: COLO 205 colon
NCI-H460 lung = tested on: NCI-H460 lung
SF-268 CNS = tested on: SF-268 CNS
CAKI-1 renal = tested on: CAKI-1 renal
TK-10 renal = tested on: TK-10 renal
NCI-H226 lung = tested on: NCI-H226 lung
HCT-116 colon = tested on: HCT-116 colon
SNB-19 CNS = tested on: SNB-19 CNS
RPMI-8226 leukemia = tested on: RPMI-8226 leukemia
SNB-75 CNS = tested on: SNB-75 CNS
MDA-MB-231 breast = tested on: MDA-MB-231 breast
A498 renal = tested on: A498 renal
MALME-3M melanoma = tested on: MALME-3M melanoma
SK-MEL-28 melanoma = tested on: SK-MEL-28 melanoma
SN12C renal = tested on: SN12C renal
HT29 colon = tested on: HT29 colon
ACHN renal = tested on: ACHN renal
A549 NSCLC = tested on: A549 NSCLC
T-47D breast = tested on: T-47D breast
BT-549 breast = tested on: BT-549 breast
LOX IMVI melanoma = tested on: LOX IMVI melanoma
EKVX NSCLC = tested on: EKVX NSCLC
OVCAR-5 ovarian = tested on: OVCAR-5 ovarian
NCI-H23 lung = tested on: NCI-H23 lung
U251 CNS = tested on: U251 CNS
HOP-92 NSCLC = tested on: HOP-92 NSCLC
HOP-62 NSCLC = tested on: HOP-62 NSCLC
PC-3 prostate = tested on: PC-3 prostate
MDA-MB-435 = tested on: MDA-MB-435
SK-MEL-2 melanoma = tested on: SK-MEL-2 melanoma
SK-OV-3 ovarian = tested on: SK-OV-3 ovarian
RXF 393 renal = tested on: RXF 393 renal
UACC-62 melanoma = tested on: UACC-62 melanoma
HS 578T breast = tested on: HS 578T breast
NCI-H522 lung = tested on: NCI-H522 lung

Molecule `COc1ccc(Cc2nnc(Nc3ccc(Br)cc3)[nH]c2=O)cc1OC` has a TGI (DU-145 prostate) greater than 100 µM, a TGI (IGROV1 ovarian) greater than 100 µM and a TGI (MCF7 breast) greater than 100 µM. It also gave a TGI (KM12 colon) greater than 100 µM, a TGI (786-0 renal) greater than 100 µM and a TGI (K-562 leukemia) greater than 100 µM. For the same molecule, the TGI (M14 melanoma) was greater than 100 µM, the TGI (SF-539 CNS) was greater than 100 µM and the TGI (UO-31 renal) was greater than 100 µM. For the same molecule, the TGI (NCI/ADR-RES ovarian) was greater than 100 µM, the TGI (OVCAR-8 ovarian) was greater than 100 µM and the TGI (OVCAR-3 ovarian) was greater than 100 µM. The TGI (CCRF-CEM leukemia) was greater than 100 µM, the TGI (HCC-2998 colon) was greater than 100 µM and the TGI (OVCAR-4 ovarian) was greater than 100 µM. It also gave a TGI (SR leukemia) greater than 94.3 µM, a TGI (SK-MEL-5 melanoma) greater than 100 µM and a TGI (HCT-15 colon) greater than 100 µM. The TGI (MOLT-4 leukemia) was greater than 100 µM, the TGI (SW-620 colon) was greater than 100 µM and the TGI (SF-295 CNS) was greater than 100 µM. It also gave a TGI (UACC-257 melanoma) greater than 100 µM, a TGI (HL-60(TB) leukemia) greater than 100 µM and a TGI (COLO 205 colon) greater than 100 µM. For the same molecule, the TGI (NCI-H460 lung) was greater than 100 µM, the TGI (SF-268 CNS) was greater than 100 µM and the TGI (CAKI-1 renal) was greater than 100 µM. For the same molecule, the TGI (TK-10 renal) was greater than 100 µM, the TGI (NCI-H226 lung) was greater than 100 µM and the TGI (HCT-116 colon) was greater than 100 µM. It also gave a TGI (SNB-19 CNS) greater than 100 µM, a TGI (RPMI-8226 leukemia) greater than 100 µM and a TGI (SNB-75 CNS) greater than 100 µM. For the same molecule, the TGI (MDA-MB-231 breast) was greater than 100 µM, the TGI (A498 renal) was greater than 100 µM and the TGI (MALME-3M melanoma) was greater than 100 µM. For the same molecule, the TGI (SK-MEL-28 melanoma) was greater than 100 µM, the TGI (SN12C renal) was greater than 100 µM and the TGI (HT29 colon) was greater than 100 µM. For the same molecule, the TGI (ACHN renal) was greater than 100 µM, the TGI (A549 NSCLC) was greater than 100 µM and the TGI (T-47D breast) was greater than 100 µM. For the same molecule, the TGI (BT-549 breast) was greater than 31.6 µM, the TGI (LOX IMVI melanoma) was greater than 100 µM and the TGI (EKVX NSCLC) was greater than 100 µM. For the same molecule, the TGI (OVCAR-5 ovarian) was greater than 100 µM, the TGI (NCI-H23 lung) was greater than 100 µM and the TGI (U251 CNS) was greater than 100 µM. The TGI (HOP-92 NSCLC) was greater than 100 µM, the TGI (HOP-62 NSCLC) was greater than 95.8 µM and the TGI (PC-3 prostate) was greater than 100 µM. It also gave a TGI (MDA-MB-435) of 20.7 µM, a TGI (SK-MEL-2 melanoma) greater than 100 µM and a TGI (SK-OV-3 ovarian) greater than 100 µM. For the same molecule, the TGI (RXF 393 renal) was greater than 100 µM, the TGI (UACC-62 melanoma) was greater than 100 µM and the TGI (HS 578T breast) was greater than 100 µM. For the same molecule, the TGI (NCI-H522 lung) was greater than 100 µM.

For `CC(=O)c1c(C)[nH]c(-c2nc3ccc(N4CCN(C)CC4)cc3[nH]2)c1-c1ccc(N(C)C)cc1`, the GI50 (DU-145 prostate) was 5.37 µM, the TGI (DU-145 prostate) was greater than 83.6 µM and the GI50 (IGROV1 ovarian) was 0.936 µM. It also gave a TGI (IGROV1 ovarian) of 12.3 µM, a GI50 (MCF7 breast) of 0.24 µM and a TGI (MCF7 breast) of 7.78 µM. For the same molecule, the GI50 (KM12 colon) was 1.34 µM, the TGI (KM12 colon) was 20.2 µM and the GI50 (786-0 renal) was 1.44 µM. The TGI (786-0 renal) was 16.7 µM, the GI50 (K-562 leukemia) was 0.461 µM and the TGI (K-562 leukemia) was 8.79 µM. The GI50 (M14 melanoma) was 0.537 µM, the TGI (M14 melanoma) was 13.4 µM and the GI50 (SF-539 CNS) was 1.15 µM. It also gave a TGI (SF-539 CNS) of 17.7 µM, a GI50 (UO-31 renal) of 0.211 µM and a TGI (UO-31 renal) of 7.33 µM. It also gave a GI50 (NCI/ADR-RES ovarian) of 0.916 µM, a TGI (NCI/ADR-RES ovarian) greater than 100 µM and a GI50 (OVCAR-8 ovarian) of 2.33 µM. The TGI (OVCAR-8 ovarian) was greater than 84.1 µM, the GI50 (OVCAR-3 ovarian) was 1.17 µM and the TGI (OVCAR-3 ovarian) was 17 µM. The GI50 (CCRF-CEM leukemia) was 1.16 µM, the TGI (CCRF-CEM leukemia) was greater than 37.7 µM and the GI50 (HCC-2998 colon) was 1.06 µM. It also gave a TGI (HCC-2998 colon) of 8.38 µM, a GI50 (OVCAR-4 ovarian) of 1.17 µM and a TGI (OVCAR-4 ovarian) of 33.6 µM. It also gave a GI50 (SR leukemia) of 0.923 µM, a TGI (SR leukemia) of 6.81 µM and a GI50 (SK-MEL-5 melanoma) of 1.19 µM. For the same molecule, the TGI (SK-MEL-5 melanoma) was 4.59 µM, the GI50 (HCT-15 colon) was 0.478 µM and the TGI (HCT-15 colon) was 14.1 µM. For the same molecule, the GI50 (MOLT-4 leukemia) was 1.5 µM, the TGI (MOLT-4 leukemia) was 45.2 µM and the GI50 (SW-620 colon) was 2.15 µM. It also gave a TGI (SW-620 colon) of 25.5 µM, a GI50 (SF-295 CNS) of 1.55 µM and a TGI (SF-295 CNS) of 14.8 µM. The GI50 (UACC-257 melanoma) was 1.03 µM, the TGI (UACC-257 melanoma) was 11 µM and the GI50 (HL-60(TB) leukemia) was 0.118 µM. The TGI (HL-60(TB) leukemia) was 0.596 µM, the GI50 (COLO 205 colon) was 0.292 µM and the TGI (COLO 205 colon) was 14 µM. For the same molecule, the GI50 (NCI-H460 lung) was 2.76 µM, the TGI (NCI-H460 lung) was greater than 56.2 µM and the GI50 (SF-268 CNS) was 4.1 µM. It also gave a TGI (SF-268 CNS) of 26.8 µM, a GI50 (CAKI-1 renal) of 0.309 µM and a TGI (CAKI-1 renal) of 13.9 µM. The GI50 (TK-10 renal) was 0.294 µM, the TGI (TK-10 renal) was 15.8 µM and the GI50 (NCI-H226 lung) was 1.95 µM. For the same molecule, the TGI (NCI-H226 lung) was 32.9 µM, the GI50 (HCT-116 colon) was 0.803 µM and the TGI (HCT-116 colon) was 13.6 µM. For the same molecule, the GI50 (SNB-19 CNS) was 1.89 µM, the TGI (SNB-19 CNS) was greater than 100 µM and the GI50 (RPMI-8226 leukemia) was 0.25 µM. For the same molecule, the TGI (RPMI-8226 leukemia) was 1.64 µM, the GI50 (SNB-75 CNS) was 0.0456 µM and the TGI (SNB-75 CNS) was 1.74 µM. For the same molecule, the GI50 (MDA-MB-231 breast) was 0.645 µM, the TGI (MDA-MB-231 breast) was 16.9 µM and the GI50 (A498 renal) was 0.323 µM. It also gave a TGI (A498 renal) of 1.98 µM, a GI50 (MALME-3M melanoma) of 0.812 µM and a TGI (MALME-3M melanoma) of 5.1 µM. The GI50 (SK-MEL-28 melanoma) was 2.47 µM, the TGI (SK-MEL-28 melanoma) was 18.7 µM and the GI50 (SN12C renal) was 1.76 µM. It also gave a TGI (SN12C renal) of 43.1 µM, a GI50 (HT29 colon) of 0.299 µM and a TGI (HT29 colon) of 19.4 µM. The GI50 (ACHN renal) was 0.773 µM, the TGI (ACHN renal) was 12.6 µM and the GI50 (A549 NSCLC) was 1.04 µM. For the same molecule, the TGI (A549 NSCLC) was greater than 48.4 µM, the GI50 (T-47D breast) was 0.434 µM and the TGI (T-47D breast) was 16.6 µM. For the same molecule, the GI50 (BT-549 breast) was 3.05 µM, the TGI (BT-549 breast) was 18.6 µM and the GI50 (LOX IMVI melanoma) was 0.359 µM. For the same molecule, the TGI (LOX IMVI melanoma) was 1.85 µM, the GI50 (EKVX NSCLC) was 4.81 µM and the TGI (EKVX NSCLC) was greater than 100 µM. For the same molecule, the GI50 (OVCAR-5 ovarian) was 1.8 µM, the TGI (OVCAR-5 ovarian) was greater than 65 µM and the GI50 (NCI-H23 lung) was 2 µM. The TGI (NCI-H23 lung) was 21.4 µM, the GI50 (U251 CNS) was 2.11 µM and the TGI (U251 CNS) was greater than 65.5 µM. The GI50 (HOP-92 NSCLC) was 0.147 µM, the TGI (HOP-92 NSCLC) was 2.53 µM and the GI50 (HOP-62 NSCLC) was 0.56 µM. The TGI (HOP-62 NSCLC) was 28.4 µM, the GI50 (PC-3 prostate) was 0.894 µM and the TGI (PC-3 prostate) was 66.9 µM. It also gave a GI50 (MDA-MB-435) of 0.554 µM, a TGI (MDA-MB-435) of 13.7 µM and a GI50 (SK-MEL-2 melanoma) of 2.58 µM. It also gave a TGI (SK-MEL-2 melanoma) of 17.6 µM, a GI50 (SK-OV-3 ovarian) of 0.465 µM and a TGI (SK-OV-3 ovarian) of 3.65 µM. The GI50 (RXF 393 renal) was 0.486 µM, the TGI (RXF 393 renal) was 2.08 µM and the GI50 (UACC-62 melanoma) was 0.175 µM. The TGI (UACC-62 melanoma) was 13 µM, the GI50 (HS 578T breast) was 0.396 µM and the TGI (HS 578T breast) was 7.23 µM. The GI50 (NCI-H522 lung) was 0.606 µM and the TGI (NCI-H522 lung) was 16.6 µM.
